Reference: patent publication US12594268B2, “Methods of treating Fabry disease in patients having a mutation in the GLA gene” (Amicus Therapeutics, Inc., priority 2018, dated 2026)
Residue numbers refer to the chain shown, from its start.

Experiments:
Assay type in all cases: cell-based
α-Gal A mutant form M96V = molecular target: T1, α-Gal A mutant form M96V (Homo sapiens, UniProt P06280, M96V); assay: α-Gal A activity in lysates of transfected HEK-293 cells, M96V
T1 construct: expressed in transfected cells; host or cells: HEK-293
T1 sequence (P06280 32-429 M96V): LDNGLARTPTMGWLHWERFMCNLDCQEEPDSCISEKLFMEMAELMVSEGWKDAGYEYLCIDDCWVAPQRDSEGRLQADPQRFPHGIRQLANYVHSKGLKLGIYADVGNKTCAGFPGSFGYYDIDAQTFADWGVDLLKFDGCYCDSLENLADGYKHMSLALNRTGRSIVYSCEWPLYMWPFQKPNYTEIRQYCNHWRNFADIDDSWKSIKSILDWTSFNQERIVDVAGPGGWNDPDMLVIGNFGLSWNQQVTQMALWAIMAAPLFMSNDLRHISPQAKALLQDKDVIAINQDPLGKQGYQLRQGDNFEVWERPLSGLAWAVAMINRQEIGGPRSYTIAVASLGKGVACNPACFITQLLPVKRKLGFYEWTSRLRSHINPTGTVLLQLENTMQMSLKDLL
Procedure: (§1) Baseline and 10 μM migalastat α-Gal A activity: Differences in the α-Gal A activity between lysates incubated in the absence and presence of 10 μM migalastat were determined using a one-tailed, Mann Whitney U test; an increase at 10 μM migalastat with a p<0.05 was considered significant.
(§2) 10 μM migalastat α-Gal A activity (% WT)=(α-Gal A activity in mutant transfected cell lysates incubated with 10 μM migalastat÷α-Gal A activity in wild-type transfected cell lysates without migalastat)*100.
(§3) Absolute increase (% WT)=is the 10 μM migalastat α-Gal A activity (% WT) minus the baseline α-Gal A activity (% WT).
(§4) Relative increase is the 10 μM migalastat α-Gal A activity in mutant transfected cell lysates÷baseline α-Gal A activity in mutant transfected cell lysates incubated without migalastat.

[1] = molecular target: T2, α-Gal A mutant form N408Y (Homo sapiens, UniProt P06280, N408Y); assay: α-Gal A activity in lysates of transfected HEK-293 cells, N408Y
T2 construct: expressed in transfected cells; host or cells: HEK-293
T2 sequence (P06280 32-429 N408Y): T1 sequence (P06280 32-429 M96V) with V65M, N377Y
Procedure: as §1, §2, §3, §4

[2] = molecular target: T3, α-Gal A mutant form A156S (Homo sapiens, UniProt P06280, A156S); assay: α-Gal A activity in lysates of transfected HEK-293 cells, A156S
T3 construct: expressed in transfected cells; host or cells: HEK-293
T3 sequence (P06280 32-429 A156S): T1 sequence (P06280 32-429 M96V) with V65M, A125S
Procedure: as §1, §2, §3, §4

[3] = molecular target: T4, α-Gal A mutant form E338V (Homo sapiens, UniProt P06280, E338V); assay: α-Gal A activity in lysates of transfected HEK-293 cells, E338V
T4 construct: expressed in transfected cells; host or cells: HEK-293
T4 sequence (P06280 32-429 E338V): T1 sequence (P06280 32-429 M96V) with V65M, E307V
Procedure: as §1, §2, §3, §4

[4] = molecular target: T5, α-Gal A mutant form Q107R (Homo sapiens, UniProt P06280, Q107R); assay: α-Gal A activity in lysates of transfected HEK-293 cells, Q107R
T5 construct: expressed in transfected cells; host or cells: HEK-293
T5 sequence (P06280 32-429 Q107R): T1 sequence (P06280 32-429 M96V) with V65M, Q76R
Procedure: as §1, §2, §3, §4

[5] = 10 μM migalastat minus baseline
[6] = 10 μM migalastat ÷ baseline activity
[7] = HEK-293 lysates, 10 μM migalastat, 5 days, mean ± SEM

`OC[C@H]1NC[C@H](O)[C@@H](O)[C@H]1O` [migalastat, (2R,3S,4R,5S)-2-(hydroxymethyl) piperdine-3,4,5-triol] was tested, and the “Absolute increase (% WT)” value (α-Gal A mutant form M96V; [5]) was 24.2 % WT, the Relative increase (α-Gal A mutant form M96V; [6]) was 2.68 and the “10 μM migalastat α-Gal A activity” value (α-Gal A mutant form M96V; [7]) was 14612 ± 1009 nmol/mg/h. The “10 μM migalastat α-Gal A activity (% WT)” value (α-Gal A mutant form M96V; [7]) was 38.1 ± 2.4 % WT, the “Absolute increase (% WT)” value [1, 5] was 44.6 % WT and the Relative increase [1, 6] was 2.09. The “10 μM migalastat α-Gal A activity” value [1, 7] was 23273 ± 2965 nmol/mg/h, the “10 μM migalastat α-Gal A activity (% WT)” value [1, 7] was 85.5 ± 7.7 % WT and the “Absolute increase (% WT)” value [2, 5] was 18.4 % WT. The Relative increase [2, 6] was 1.29, the “10 μM migalastat α-Gal A activity” value [2, 7] was 31597 ± 2293 nmol/mg/h and the “10 μM migalastat α-Gal A activity (% WT)” value [2, 7] was 85.1 ± 53 % WT. The “Absolute increase (% WT)” value [3, 5] was 24.7 % WT, the Relative increase [3, 6] was 1.83 and the “10 μM migalastat α-Gal A activity” value [3, 7] was 21807 ± 845 nmol/mg/h. The “10 μM migalastat α-Gal A activity (% WT)” value [3, 7] was 54.8 ± 2.2 % WT, the “Absolute increase (% WT)” value [4, 5] was 21.5 % WT and the Relative increase [4, 6] was 1.27. The “10 μM migalastat α-Gal A activity” value [4, 7] was 31193 ± 2248 nmol/mg/h and the “10 μM migalastat α-Gal A activity (% WT)” value [4, 7] was 109.8 ± 8.4 % WT.
